According to patent publication US11072619B2, “Pyrazole[1,5-a] pyrimidine derivatives as kinase JAK inhibitors” (CELON PHARMA S.A., priority 2017, dated 2021):

How the values were obtained:
TF-1 cells = TF-1 cells viability in vitro in the presence of IL-3 (JAK2 activation); type: cell-based; conditions: Homo sapiens, 5 ng/mL IL-3, 72 hours, ATPlite, read-out: JAK2 IL3 (EC50, inhibition of viability of TF-1 cells)
Method: Assay for TF-1 Cells Viability In Vitro
The effects of the activity of the compounds of the invention were tested in vitro using cells viability assay described below.
Tested compounds were dissolved in 100% DMSO, and obtained stock solutions were serially diluted in OptiMEM medium (Reduced Serum Medium-Thermo Fisher Scientific). […] To a well of the 96-well plate 10 μL of the prepared 10× stock solutions of the compounds. Cells on 96-well plates were incubated with the compounds for 72 hours at 37° C., 5% CO2. Subsequently, viability of the cells was measured using ATPlite kit (Perkin Elmer). For this purpose, 50 μL of lysis buffer (mammalian cell lysis solution) were added to a well of the 96-well plate and the plate was incubated for 10 minutes at 25° C. in a plate thermo-shaker with orbital stirring at 600 rpm. Then to a well of the 96-well plate 50 μL of substrate (substrate solution) were added and incubated for 15 minutes at in dark, in a plate thermo-shaker with orbital stirring at 600 rpm. After incubation time, luminescence intensity in a well was measured using Victor×Light luminometer (Perkin Elmer, Inc.).
On the basis of luminescence intensity measurements in well containing tested compounds at various concentrations and in control wells EC50 values were determined. These values were determined with Graph Pad software v. […] Each compound was tested in at least 6 repetitions (6 wells) on two 96-well plates, using at least 3 wells of each control.

[1] = system: STAT6 protein phosphorylation in TF-1 cells; assay: STAT6 phosphorylation inhibition in vitro in TF-1 cells with IL-4; type: cell-based; conditions: Homo sapiens, IL-4 20 ng/mL, 1 hour, Western blot densitometry
Method: Assay of STAT6 Phosphorylation Inhibition In Vitro
The activity of the compounds of the invention was tested using in vitro assay described below.
Tested compounds were dissolved in 100% DMSO, and obtained stock solutions were serially in OptiMEM medium (Reduced Serum Medium-Thermo Fisher Scientific). TF-1 cells (DSMZ no.: ACC 334) in culture medium (80% RPMI 1640+20% FBS) in the presence of IL-4 at 20 ng/mL were sieved on 12-well plates at 900 μl/well, 700 thousands of cells/well. To a well of the 12-well plate 100 μL of obtained 10× solution of the compounds were added. Cells on 12-well plates were incubated with tested compounds for 1 hour at 37° C., 5% CO2. Subsequently the cells were washed with PBS, lysed in RIPA buffer added with EDTA, proteases and phosphatases inhibitors, and incubated for 5 min on ice. Protein concentration was determined using Pierce BCA Protein Assay Kit (Thermo Fisher Scientific). Protein lysates were separated by electrophoresis (SDS-PAGE) on 8% polyacrylamide gels, then wet-transferred on nitrocellulose membrane and tested proteins were detected in accordance with the instructions of antibody manufacturer.
On the basis of the measurement of chemoluminescence intensity densitometric analysis was performed, results obtained for the cells treated with tested compounds at various concentrations were compared with those obtained for control cells, and IC50 values were determined.
These values were determined with Graph Pad software v. 5.03, by fitting points of the curve using non-linear regression method. Each compound was tested in at least 3 repetitions.

Recombinant kinase JAK1 = Recombinant kinase JAK1 (Homo sapiens (Human), UniProt P23458); assay: In vitro JAK kinase inhibition assay (ADP-Glo), JAK1; type: biochemical; conditions: 30 μM ATP, peptide IRS-1, averaged
Chain of Recombinant kinase JAK1 (P23458 whole entry): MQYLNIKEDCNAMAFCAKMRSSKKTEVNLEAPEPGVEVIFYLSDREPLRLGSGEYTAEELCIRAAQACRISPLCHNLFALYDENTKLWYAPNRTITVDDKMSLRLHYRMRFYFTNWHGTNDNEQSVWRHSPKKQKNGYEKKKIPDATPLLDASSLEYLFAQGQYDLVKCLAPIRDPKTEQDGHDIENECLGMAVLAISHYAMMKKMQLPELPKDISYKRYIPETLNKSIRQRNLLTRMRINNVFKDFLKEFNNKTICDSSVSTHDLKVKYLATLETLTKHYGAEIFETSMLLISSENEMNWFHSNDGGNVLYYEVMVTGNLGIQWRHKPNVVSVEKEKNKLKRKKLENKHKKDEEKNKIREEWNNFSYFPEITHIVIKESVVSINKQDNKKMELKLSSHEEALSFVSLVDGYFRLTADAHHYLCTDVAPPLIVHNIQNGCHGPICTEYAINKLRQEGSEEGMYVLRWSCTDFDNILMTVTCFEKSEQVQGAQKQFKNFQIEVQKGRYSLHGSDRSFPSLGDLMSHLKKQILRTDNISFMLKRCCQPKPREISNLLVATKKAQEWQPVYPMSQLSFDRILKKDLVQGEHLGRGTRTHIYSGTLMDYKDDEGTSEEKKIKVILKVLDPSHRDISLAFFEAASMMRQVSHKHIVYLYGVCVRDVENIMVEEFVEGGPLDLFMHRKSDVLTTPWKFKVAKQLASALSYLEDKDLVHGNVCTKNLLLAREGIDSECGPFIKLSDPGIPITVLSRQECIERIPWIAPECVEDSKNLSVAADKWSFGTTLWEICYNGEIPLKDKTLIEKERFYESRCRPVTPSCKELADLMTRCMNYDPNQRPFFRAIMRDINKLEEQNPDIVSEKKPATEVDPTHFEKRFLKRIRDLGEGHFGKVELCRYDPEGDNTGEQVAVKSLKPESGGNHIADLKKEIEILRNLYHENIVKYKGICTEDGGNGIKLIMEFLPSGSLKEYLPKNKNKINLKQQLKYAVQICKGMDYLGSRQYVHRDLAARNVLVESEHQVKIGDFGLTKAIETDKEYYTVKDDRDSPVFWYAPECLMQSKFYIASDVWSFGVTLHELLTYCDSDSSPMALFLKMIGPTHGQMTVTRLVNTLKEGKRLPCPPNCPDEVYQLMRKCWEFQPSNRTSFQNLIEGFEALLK
Method: In Vitro JAK Kinase Inhibition Assay
The effects of the compounds of the invention were analysed in vitro using kinase JAK inhibition assay described below.
Tested compounds were dissolved in 100% DMSO, and obtained stock solutions were serially diluted in the reaction buffer (50 mM Tris pH 7.5, 10 mM MgCl2, 0.25 mM EGTA, 0.1 mM Na3VO4, 0.01% Triton X-100, 2.5 mM DTT). Recombinant kinases JAK1 (ProQinase), JAK2, or JAK3 (Carna Biosciences) were diluted in the dilution buffer (50 mM Tris-HCl pH 7.5, 150 mM NaCl, 10% glycerol, 0.05% Triton X-100, 1 mM DTT) to the final concentration 3 ng/μL (JAK1), 0.1 ng/μL (JAK2), or 0.2 ng/μL (JAK3). 5 μL of obtained solution of the compounds and 5 μL of the solution of respective kinases were added to the well of a 96-well plate. To initiate interaction between tested compounds and an enzyme, the plate was incubated for 10 minutes at 25° C. in a Plate-Thermo-Shaker with orbital stirring at 400 rpm. Wells of a negative control contained all reagents as mentioned above with the exception of tested compounds and kinase, and wells of a positive controls contained all reagents as mentioned above with the exception of tested compounds. Enzymatic reaction was initiated by the addition of 15 μL of the following solution: 5× concentrated reaction buffer (50 mM Tris pH 7.5, 10 mM MgCl2, 0.25 mM EGTA, 0.1 mM Na3VO4, 0.01% Triton X-100, 2.5 mM DTT), water, 30 μM ATP and for particular kinases: JAK1—60 μM peptide IRS-1 (Enzo), JAK2 or JAK3—10 μM peptide IGF-1Rtide (Lipopharm). Then the plate was incubated for 1 hour at 25° C. in a Plate-Thermo-Shaker, with orbital stirring at 400 rpm. Detection of ADP formed in the enzymatic reaction was then performed using ADP-Glo Kinase Assay kit (Promega). For this purpose, to the well of the 96-well plate 25 μL of ADP-Glo Reagent were added, and the plate was incubated for 40 minutes at 25° C. in a Plate-Thermo-Shaker with orbital stirring at 400 rpm. Then to the well of the 96-well plate 50 μL of Kinase Detection Reagent were added and the plate was incubated for 30 minutes at 25° C. in a Plate-Thermo-Shaker with orbital stirring at 400 rpm. After incubation, luminescence intensity was measured using Victor×Light luminometer (Perkin Elmer, Inc.).
On the basis of luminescence measurement in wells containing tested compounds at various concentrations and in control wells, IC50 values were determined. These values were determined with Graph Pad software v. 5.03, by fitting points of the curve using non-linear regression method. Each compound was tested in at least 6 repetitions (6 wells) on two 96-well plates, using at least 3 wells of each control.
Averaged results of kinases JAK inhibition activity for selected compounds of the present invention are presented below in Table 1.

SMILES: COc1ccc(-c2cc3ncc(C(N)=O)c(N[C@@H]4CCN(c5ccc(C#N)nn5)CC4(C)C)n3n2)cn1 [Example 4, (R)-7-((1-(6-Cyanopyridazin-3-yl)-3,3-dimethylpiperidin-4-yl)amino)-2-(6-methoxy-pyridin-3-yl)pyrazolo[1,5-a]pyrimidine-6-carboxamide]
- IC50 (TF-1 cells): 707 nM
- IC50 [1]: 442 nM
- IC50 (Recombinant kinase JAK1): 2.67 nM

SMILES: CC1(C)CN(c2ccc(C#N)nn2)CC[C@H]1Nc1c(C(N)=O)cnc2cc(-c3ccc(N4CCOCC4)nc3)nn12 [Example 7, (R)-7-((1-(6-Cyanopyridazin-3-yl)-3,3-dimethylpiperidin-4-yl)amino)-2-(6-morpholinopyridin-3-yl)pyrazolo[1,5-a]pyrimidine-6-carboxamide]
- IC50 (TF-1 cells): 283 nM
- IC50 [1]: 116 nM
- IC50 (Recombinant kinase JAK1): 0.75 nM

SMILES: COc1cccc(-c2cc3ncc(C(N)=O)c(N[C@@H]4CCN(c5ccc(C#N)nn5)CC4(C)C)n3n2)n1 [Example 11, (R)-7-((1-(6-Cyanopyridazin-3-yl)-3,3-dimethylpiperidin-4-yl)amino)-2-(6-methoxy-pyridin-2-yl)pyrazolo[1,5-a]pyrimidine-6-carboxamide]
- IC50 (TF-1 cells): 451 nM
- IC50 [1]: 114 nM
- IC50 (Recombinant kinase JAK1): 0.05 nM

SMILES: Cc1cc(-c2cc3ncc(C(N)=O)c(N[C@@H]4CCN(c5ccc(C#N)nn5)CC4(C)C)n3n2)ccn1 [Example 12, (R)-7-((1-(6-Cyanopyridazin-3-yl)-3,3-dimethylpiperidin-4-yl)amino)-2-(2-methyl-pyridin-4-yl)pyrazolo[1,5-a]pyrimidine-6-carboxamide]
- IC50 (TF-1 cells): 361 nM
- IC50 [1]: 150 nM
- IC50 (Recombinant kinase JAK1): 0.51 nM
